Target: T1, human mAChR M1 (Homo sapiens, UniProt P11229)
T1 sequence (P11229 1-460): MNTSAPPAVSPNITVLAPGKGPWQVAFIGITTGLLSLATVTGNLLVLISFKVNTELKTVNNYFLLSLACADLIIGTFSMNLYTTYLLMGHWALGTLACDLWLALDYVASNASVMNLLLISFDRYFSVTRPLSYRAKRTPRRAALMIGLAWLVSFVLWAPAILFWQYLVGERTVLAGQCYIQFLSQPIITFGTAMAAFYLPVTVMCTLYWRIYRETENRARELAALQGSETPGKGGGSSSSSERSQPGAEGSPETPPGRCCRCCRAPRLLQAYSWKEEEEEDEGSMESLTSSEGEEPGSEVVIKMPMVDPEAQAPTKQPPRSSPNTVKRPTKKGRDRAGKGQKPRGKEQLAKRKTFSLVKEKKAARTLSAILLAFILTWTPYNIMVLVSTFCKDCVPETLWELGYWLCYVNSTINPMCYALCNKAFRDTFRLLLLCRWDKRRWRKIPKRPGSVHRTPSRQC
Test: mAChR M1 cell-based functional assay: calcium mobilization, positive allosteric modulator mode (increase in EC20 acetylcholine response)
Settings: Table 2, human M1; for EC50: read-out: Human M1 EC50; for Emax: read-out: Human M1 Emax (%)
Summary of the method: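 PAM potency reflects the concentration-dependent increase in calcium response to an EC20 acetylcholine challenge, given 144 s into a 300 s read after compound addition at 4 s (EC80 follows at 230 s). Cells were hM1-expressing CHO-K1, loaded 50 min with Fluo-4 AM. Curves used 11 points at 1:3 dilutions and four-parameter logistic fitting.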

Cn1ccc2nc(C(=O)N[C@H]3CCOC[C@@H]3O)cc(Cc3ccc(-n4cccn4)cc3)c21 [Compound 453, N-[(3R,4S)-3-hydroxytetrahydropyran-4-yl]-1-methyl-7-[(4-pyrazol-1-ylphenyl)methyl]pyrrolo[3,2-b]pyridine-5-carboxamide]
EC50: 6.77 nM | Emax: 63.1%

Cn1ccc2nc(C(=O)N[C@H]3CCCC[C@@H]3O)cc(Cc3ccc(-n4cccn4)cc3)c21 [Compound 454, N-[(1S,2S)-2-hydroxycyclohexyl]-1-methyl-7-[(4-pyrazol-1-ylphenyl)methyl]pyrrolo[3,2-b]pyridine-5-carboxamide]
EC50: 13.9 nM | Emax: 69.3%

Cn1ccc2nc(C(=O)NC3CCOCC3)cc(Cc3ccc(-n4cccn4)cc3)c21 [Compound 455, 1-methyl-7-[(4-pyrazol-1-ylphenyl)methyl]-N-tetrahydropyran-4-yl-pyrrolo[3,2-b]pyridine-5-carboxamide]
EC50: 136 nM | Emax: 75.1%

Cn1ccc2nc(C(=O)N[C@H]3CCCCC[C@@H]3O)cc(Cc3ccc(-c4cscn4)cc3)c21 [Compound 456, N-[(1S,2S)-2-hydroxycycloheptyl]-1-methyl-7-[(4-thiazol-4-ylphenyl)methyl]pyrrolo[3,2-b]pyridine-5-carboxamide]
EC50: 129 nM | Emax: 67.9%

Cn1ccc2nc(C(=O)N[C@H]3CCCC[C@@H]3O)cc(Cc3ccc(-c4cscn4)cc3)c21 [Compound 457, N-[(1S,2S)-2-hydroxycyclohexyl]-1-methyl-7-[(4-thiazol-4-ylphenyl)methyl]pyrrolo[3,2-b]pyridine-5-carboxamide]
EC50: 34.8 nM | Emax: 64.8%

Cn1ccc2nc(C(=O)N[C@H]3CCC[C@@H]3O)cc(Cc3ccc(-c4cscn4)cc3)c21 [Compound 458, N-[(1S,2S)-2-hydroxycyclopentyl]-1-methyl-7-[(4-thiazol-4-ylphenyl)methyl]pyrrolo[3,2-b]pyridine-5-carboxamide]
EC50: 129 nM | Emax: 73.4%

Cn1ccc2nc(C(=O)N[C@H]3CC[C@@H]3O)cc(Cc3ccc(-c4cscn4)cc3)c21 [Compound 459, N-[(1S,2S)-2-hydroxycyclobutyl]-1-methyl-7-[(4-thiazol-4-ylphenyl)methyl]pyrrolo[3,2-b]pyridine-5-carboxamide]
EC50: 108 nM | Emax: 73.5%

C[C@@H]1CC(NC(=O)c2cc(Cc3ccc(-c4cscn4)cc3)c3c(ccn3C)n2)C[C@H](C)O1 (stereo partly drawn) [Compound 460, N-[(2S,6R)-2,6-dimethyltetrahydropyran-4-yl]-1-methyl-7-[(4-thiazol-4-ylphenyl)methyl]pyrrolo[3,2-b]pyridine-5-carboxamide]
EC50: 379 nM | Emax: 70.3%

Cn1ccc2nc(C(=O)NC3CCOC(C)(C)C3)cc(Cc3ccc(-c4cscn4)cc3)c21 (centres unmarked) [Compound 461, N-(2,2-dimethyltetrahydropyran-4-yl)-1-methyl-7-[(4-thiazol-4-ylphenyl)methyl]pyrrolo[3,2-b]pyridine-5-carboxamide]
EC50: 410 nM | Emax: 70.8%

Cn1ccc2nc(C(=O)N[C@H]3CCCOC3)cc(Cc3ccc(-c4cscn4)cc3)c21 [Compound 462, 1-methyl-N-[(3S)-tetrahydropyran-3-yl]-7-[(4-thiazol-4-ylphenyl)methyl]pyrrolo[3,2-b]pyridine-5-carboxamide]
EC50: 2050 nM | Emax: 67.9%

Cn1ccc2nc(C(=O)N[C@@H]3CCCOC3)cc(Cc3ccc(-c4cscn4)cc3)c21 [Compound 463, 1-methyl-N-[(3R)-tetrahydropyran-3-yl]-7-[(4-thiazol-4-ylphenyl)methyl]pyrrolo[3,2-b]pyridine-5-carboxamide]
EC50: 1010 nM | Emax: 71.9%

Cn1ccc2nc(C(=O)N[C@H]3CCOC3)cc(Cc3ccc(-c4cscn4)cc3)c21 [Compound 464, 1-methyl-N-[(3S)-tetrahydrofuran-3-yl]-7-[(4-thiazol-4-ylphenyl)methyl]pyrrolo[3,2-b]pyridine-5-carboxamide]
EC50: 1870 nM | Emax: 71.2%

Cn1ccc2nc(C(=O)N[C@@H]3CCOC3)cc(Cc3ccc(-c4cscn4)cc3)c21 [Compound 465, 1-methyl-N-[(3R)-tetrahydrofuran-3-yl]-7-[(4-thiazol-4-ylphenyl)methyl]pyrrolo[3,2-b]pyridine-5-carboxamide]
EC50: 1870 nM | Emax: 72%

Cn1ccc2nc(C(=O)NCC3CCOCC3)cc(Cc3ccc(-c4cscn4)cc3)c21 [Compound 466, 1-methyl-N-(tetrahydropyran-4-ylmethyl)-7-[(4-thiazol-4-ylphenyl)methyl]pyrrolo[3,2-b]pyridine-5-carboxamide]
EC50: 364 nM | Emax: 72.2%

Cn1ccc2nc(C(=O)NC3COC3)cc(Cc3ccc(-c4cscn4)cc3)c21 [Compound 467, 1-methyl-N-(oxetan-3-yl)-7-[(4-thiazol-4-ylphenyl)methyl]pyrrolo[3,2-b]pyridine-5-carboxamide]
EC50: 2970 nM | Emax: 61.2%

Cn1cc(-c2ccc(Cc3cc(C(=O)N[C@H]4CCOC[C@@H]4O)nc4ccn(C)c34)cn2)cn1 [Compound 468, N-[(3R,4S)-3-hydroxytetrahydropyran-4-yl]-1-methyl-7-[[6-(1-methylpyrazol-4-yl)-3-pyridyl]methyl]pyrrolo[3,2-b]pyridine-5-carboxamide]
EC50: 11.8 nM | Emax: 70%

Cn1cc(-c2ccc(Cc3cc(C(=O)N[C@H]4CCCC[C@@H]4O)nc4ccn(C)c34)cn2)cn1 [Compound 469, N-[(1S,2S)-2-hydroxycyclohexyl]-1-methyl-7-[[6-(1-methylpyrazol-4-yl)-3-pyridyl]methyl]pyrrolo[3,2-b]pyridine-5-carboxamide]
EC50: 29.8 nM | Emax: 72.3%

Cn1cc(-c2ccc(Cc3cc(C(=O)NC4CCOCC4)nc4ccn(C)c34)cn2)cn1 [Compound 470, 1-methyl-7-[[6-(1-methylpyrazol-4-yl)-3-pyridyl]methyl]-N-tetrahydropyran-4-yl-pyrrolo[3,2-b]pyridine-5-carboxamide]
EC50: 223 nM | Emax: 86%

Cn1cc(-c2ccc(Cc3cc(C(=O)NC4CC5(COC5)C4)nc4ccn(C)c34)cn2)cn1 [Compound 471, 1-methyl-7-[[6-(1-methylpyrazol-4-yl)-3-pyridyl]methyl]-N-(2-oxaspiro[3.3]heptan-6-yl)pyrrolo[3,2-b]pyridine-5-carboxamide]
EC50: 390 nM | Emax: 85.4%

Cn1cc(-c2ccc(Cc3cc(C(=O)NC4CCOC(C)(C)C4)nc4ccn(C)c34)cn2)cn1 (centres unmarked) [Compound 472, N-(2,2-dimethyltetrahydropyran-4-yl)-1-methyl-7-[[6-(1-methylpyrazol-4-yl)-3-pyridyl]methyl]pyrrolo[3,2-b]pyridine-5-carboxamide]
EC50: 422 nM | Emax: 85.6%

Cn1ccc(-c2ccc(Cc3cc(C(=O)NC4CCOCC4)nc4ccn(C)c34)cc2)n1 [Compound 473, 1-methyl-7-[[4-(1-methylpyrazol-3-yl)phenyl]methyl]-N-tetrahydropyran-4-yl-pyrrolo[3,2-b]pyridine-5-carboxamide]
EC50: 106 nM | Emax: 85.8%

Cn1ccc(-c2ccc(Cc3cc(C(=O)N[C@H]4CCOC[C@@H]4O)nc4ccn(C)c34)cc2)n1 [Compound 474, N-[(3R,4S)-3-hydroxytetrahydropyran-4-yl]-1-methyl-7-[[4-(1-methylpyrazol-3-yl)phenyl]methyl]pyrrolo[3,2-b]pyridine-5-carboxamide]
EC50: 6.43 nM | Emax: 70.4%
